Laboratory results published in patent publication US20030108980A1, “Bioluminescent methods for direct visual detection of environmental compounds” (priority 2000, published 2003).

Experiments:
E. coli ARL1 = test: Detection of mercury using bioluminescence, strain ARL1; format: cell-based; settings: 500 μg HgCl2/L
Experimental: (§1) Strains ARL1, ARL2, and ARL3 were screened for bioluminescence production in the presence of HgCl2. Each strain was grown in LB medium to an OD546nm of 0.35 at which time 500 μg HgCl2/L was added. Induction of bioluminescence in the presence of mercury was rapid (FIG. 5) with significant light produced in 30 minutes. Strain ARL2 had higher background bioluminescence (˜31,486 cps) in the absence of mercury relative to strain ARL1 and ARL3 (˜13,798 and ˜12,762 respectively). After 20 minutes, strain ARL2 produced approximately twice the amount of bioluminescence ((˜1,791,560 cps) relative to strains ARL1 and ARL3 (˜917.496 and 825,240 cps respectively).

E. coli ARL2 = test: Detection of mercury using bioluminescence, strain ARL2; format: cell-based; settings: 500 μg HgCl2/L
Experimental: as §1

E. coli ARL3 = test: Detection of mercury using bioluminescence, strain ARL3; format: cell-based; settings: 500 μg HgCl2/L
Experimental: as §1

P. fluorescens 5RL [1] = settings: salicylate 10 and 100 ppm, cellulose filter strips, room temperature
Experimental: Strips were removed and excess fluid was drained. These filter strips with cells were placed on a second set of strips impregnated with salicylic acid (10 and 100 ppm).
Briefly, a 100 μl sample of an uninduced culture of Pseudomonas fluorescens 5RL was placed in a sterile petri dish containing LB broth (10 ml) supplemented with tetracycline (14 μg/mI).

E. coli EC100 = settings: cellulose strips
P. putida TVA8 [2] = test: Prototype test strip, toluene bioreporter; format: cell-based; settings: 10 ppm toluene in mixture
Source text: (§2) 1. The bottom layer is absorbent Whatman filter paper.
(§3) 2. The second layer is an impermeable water barrier. Currently we are using aluminum foil.
(§4) 4. The fourth layer is the styrene sheet. […] There is one circle for each bioreporter.
(§5) 5. The last layer is the encapsulated cells.
(§6) Water will be wicked up the filter paper.
[…]. […] […].

P. putida TVA8 [3] = settings: cited from earlier work
P. fluorescens 5RL [4] = test: Prototype test strip, naphthalene/salicylate bioreporter; format: cell-based; settings: 5 ppm naphthalene in mixture with 1 ppm Hg2+ and 10 ppm toluene
Source text: as §2, §3, §4, §5, §6

[5] = system: P. fluorescens 5RL (pUTK21); settings: cited from earlier work

## [Cl][Hg][Cl] [HgCl2]
E. coli ARL1
  time to significant light production: 30 min
E. coli ARL2
  time to significant light production: 30 min
E. coli ARL2; LB medium, OD546nm 0.35
  bioluminescence after 20 minutes: ~1,791,560 cps
E. coli ARL3
  time to significant light production: 30 min
E. coli ARL3; LB medium, OD546nm 0.35
  bioluminescence after 20 minutes: ~825,240 cps

## O=C([O-])c1ccccc1O.[Na+] [salicylate, sodium salicylate]
P. fluorescens 5RL [1]
  time to light visible to the naked eye: less than 60 min
E. coli EC100
  time to visible light after contact of test strips with inducer solution: less than one hour

## Cc1ccccc1 [Toluene]
P. putida TVA8 [2]
  visibility of bioluminescence on test strip: only detectable with a photomultiplier
P. putida TVA8 [3]
  Response Time: 25 ppm

## c1ccc2ccccc2c1 [Naphthalene]
P. fluorescens 5RL [4]
  visibility of bioluminescence on test strip: visible to the naked eye
[5]
  Lower Detection Limits: ˜50 ppb
  Response Time: ˜1 hour
